{"source": "patent US20220409617A1", "about": "“Drug Formulations and Methods of Treatment for Metabolic Disorders” (The Regents of the University of California, priority 2019, published 2022)", "key": {"[1]": {"system": "mouse embryonic fibroblasts (MEFs)", "assay": "Ceramide-induced (C16:0 CER, C2-ceramide) mitochondrial fragmentation", "type": "cell-based", "settings": "MEFs, 893 5 μM", "method": "3T3-L1 cells were maintained in DMEM with 10% FBS and 1% penicillin-streptomycin until induced to differentiate. 3T3-L1 pre-adipocytes were differentiated as described in (M. P. Valley, et al., Anal. Biochem. 505: 43-50, 2016, the disclosure of which is incorporated herein by reference) with slight modifications. Briefly, pre-adipocytes were grown to confluence. After 2 d, cells were induced with maintenance media containing 500 μM IBMX (15879, Sigma-Aldrich, St. Louis, Mo.), 1 μM dexamethasone (D4902, Sigma-Aldrich), 5 μg/mL bovine insulin (10516, Sigma-Aldrich), and 5 μM troglitazone (50-115-0786, ApexBio). Media was changed every 2-3 d for 7 d. On day 7 post-induction, media was changed to maintenance media+5 μg/mL bovine insulin. On day 9 post-induction, media was changed to maintenance media. Mature adipocytes were used 12-14 d post-induction for all experiments. LSL-KrasG12D mouse embryonic fibroblasts (MEFs) with and without Cre-mediated deletion of the STOP cassette were obtained from David Tuveson (Cold Spring Harbor Laboratory, Cold Spring Harbor N.Y., USA) in 2000. p53^flox/flox MEFs were derived in house (2015) from C57BL/6 mice using standard techniques and immortalized by transient expression of Cre recombinase and deletion of p53. MEFs were cultured and maintained in DMEM with 10% FBS and 1% penicillin-streptomycin. A549 cells were cultured in DMEM with 10% FBS, 1% penicillin-streptomycin and 1% sodium pyruvate. Stock solution of palmitic acid (ACROS Organics, cat # AC129702500) was prepared at 100 mM in ethanol. Palmitate (250 μM) was conjugated to 1% (w/v) fatty-acid free bovine serum albumin (Sigma, A8806) in DMEM at 37° C. for 20 min. For all immunofluorescence assays, 8,000 MEFs were seeded into 8-chamber slides (Cellvis, cat # C8-1.5H-N) 12-16 h before treatment. Cells were pre-treated with sphingolipid-like compound 893 (5 μM in water), myriocin (10 μM in methanol), fumonisin-B1 (30 μM in DMSO), or celastrol (500 nM in DMSO) for 3 h followed by a 3 h treatment with BSA-conjugated palmitate mixture or BSA alone. Where cells were treated with C2-ceramide (50 μM in DMSO) or C16:0 ceramide (100 μM in ethanol) for 3 h, cells were pre-treated with sphingolipid-like compound 893 for 1-3 h as indicated, mdivi-1 (50 μM in DMSO) for 1 h or 24 h, M1 (5 μM in DMSO) for 24 h, mdivi-1 and M1 together for 24 h, leflunomide (50 μM in methanol) for 1 h or 24 h, or with P110 (1 μM in water) for 1 h or 12 h. LSL or KRAS^G12D MEFs were treated with sphingolipid-like compound 893 (5 μM) for 6 h prior to fixation.\nMEFs were washed twice with PBS and fixed with 4% paraformaldehyde for 10 min at RT. Cells were permeabilized with 0.3% Triton X-100 in blocking buffer containing 10% fetal bovine serum for 20 min at 37° C. followed by overnight incubation with mouse anti-citrate synthase (sc-390693, Santa Cruz Biotechnology; dilution, 1:200) or rabbit-anti-DRP1 at 1:100 (#8570, Cell Signaling Technology) at 4° C. Cells were then washed twice with PBS and incubated with AlexaFluor 488 goat anti-mouse (A28175, Invitrogen) or AlexaFluor 594 donkey anti-rabbit (A32754, Invitrogen) secondary antibodies at RT followed by 5 min incubation with 1 μg/ml DAPI and 2 washes in PBS. For NADH autofluorescence studies, mice were gavaged with vehicle or 120 mg/kg sphingolipid-like compound 893 at ZT8.5 (4-10.5 h before sacrifice between ZT12.5 and ZT18). Post sacrifice, livers were excised, washed 3× with PBS, placed in DMEM supplemented with 10% FBS and 1% penicillin-streptomycin, and immediately imaged. NADH/NADPH autofluorescence was detected with 740 nm excitation and 450±50 nm detectors using a Mai Tai two-photon laser. Fluorescence microscopy was performed on a Zeiss LSM 780 confocal using a 63× oil objective with a […] numerical aperture (NA) or using a Nikon TE2000-S inverted epifluorescence microscope with a 100× oil objective (1.3 NA) and a Photometrics CoolSNAP ES2 monochrome CCD camera. […]"}, "[2]": {"assay": "Voluntary cage running in HFD-fed mice", "type": "in vivo, mouse", "description": "Exercise can mitigate the negative effects of hyper-nutrition. When provided with a running wheel, mice will voluntarily run 2-10 km per night, slowing the body weight and fat gain that normally accompany HFD feeding and improving metabolic status. To benchmark the effects of sphingolipid-like compound 893 against voluntary exercise and to determine whether the beneficial effects of these interventions are additive, 16 male, C57BL/6J mice that had been fed a HFD for 7 weeks were individually housed, provided with running wheels, and randomly assigned to receive vehicle or 120 mg/kg sphingolipid-like compound 893 on the Monday/Wednesday/Friday schedule. Rodent running activity declines under stress, and monitoring the duration and distance of voluntary wheel running also provides a holistic measure of overall mouse health. […] As expected, voluntary exercise led to weight loss in vehicle-treated mice maintained on a HFD that leveled off after the first week of intervention (FIGS. 15, 21, & 22). […] Wheel running reduced fat mass while maintaining lean mass in all groups (FIGS. 15, 22 & 23).\nTo monitor voluntary exercise, sixteen mice were singly housed in home cages equipped with running wheels; initially n=8. A magnet was affixed to each 240 mm wheel and a bicycle odometer (Sigma BC509, Sigma Sports, Chicago) used to count the number of wheel revolutions and time spent on running on the wheels. Distance run was calculated by the equation (#revolutions×running wheel circumference=distance). The wheels were cleaned and randomly re-assigned weekly to each cage to control for differences in wheel performance. Two animals in the sphingolipid-like compound 893-treated group were euthanized due to gavage errors and were excluded from the analysis resulting in n=6."}}, "data": [{"smiles": "CCCCCCCCc1ccc([C@H]2CCN[C@@H]2CO)cc1.Cl", "note": "[compound 893]", "values": [{"measurement": "Pre-treatment time after which the compound was effective against C16:0 ceramide-induced fragmentation", "setting": "[1]", "result": 1, "unit": "h"}, {"measurement": "Protection from ceramide-induced mitochondrial fragmentation", "setting": "[1]; C16:0 CER 100 μM or C2-ceramide 50 μM 3 h, mdivi-1 50 μM, M1 5 μM, leflunomide 50 μM, P110 1 μM", "result": "blocked ceramide-induced mitochondrial fragmentation"}, {"measurement": "Average time spent on running wheels each day", "setting": "[2]; HFD-fed mice with running wheels, 120 mg/kg", "result": "equivalent in vehicle- and sphingolipid-like compound 893-treated groups"}, {"measurement": "Average daily distance run", "setting": "[2]; HFD-fed mice with running wheels, 120 mg/kg Mon/Wed/Fri", "result": "2.8±1.2", "unit": "km"}, {"measurement": "Weight loss, running wheel plus treatment", "setting": "[2]; HFD-fed mice, running wheel and 120 mg/kg", "result": "even greater weight loss than observed with either treatment alone"}]}]}
